Data taken from ChEMBL document CHEMBL2150993, “Substituted thiazoles VII. Synthesis and antitumor activity of certain 2-(substituted amino)-4-phenyl-1,3-thiazole analogs” (2012).

Legend:
Assay type in all cases: functional
[1] = Antiproliferative activity against human renal cancer cells after 48 hrs by cell counting analysis; conditions: Cancer cell lines
[2] = Antiproliferative activity against human non-small cell lung cancer cells after 48 hrs by cell counting analysis; conditions: Cancer cell lines
[3] = Antiproliferative activity against human melanoma cells after 48 hrs by cell counting analysis
[4] = Antiproliferative activity against human ovarian cancer cells after 48 hrs by cell counting analysis; conditions: Cancer cell lines
[5] = Antiproliferative activity against human prostate cancer cells after 48 hrs by cell counting analysis; conditions: Cancer cell lines
[6] = Antiproliferative activity against human breast cancer cells after 48 hrs by cell counting analysis; conditions: Cancer cell lines
[7] = Antiproliferative activity against human CNS cancer cells after 48 hrs by cell counting analysis; conditions: Cancer cell lines
[8] = Antiproliferative activity against human colon cancer cells after 48 hrs by cell counting analysis; conditions: Cancer cell lines
[9] = Antiproliferative activity against human leukemia cells after 48 hrs by cell counting analysis
[10] = test system: UO-31; test: Growth inhibition of human UO31 cells after 48 hrs by cell counting analysis; conditions: at 10 µM
[11] = test system: PC-3; test: Growth inhibition of human PC3 cells after 48 hrs by cell counting analysis; conditions: at 10 µM
[12] = test system: HL-60; test: Growth inhibition of human HL60 cells after 48 hrs by cell counting analysis; conditions: at 10 µM
[13] = test system: K562; test: Growth inhibition of human K562 cells after 48 hrs by cell counting analysis; conditions: at 10 µM
[14] = test system: HT-29; test: Growth inhibition of human HT-29 cells after 48 hrs by cell counting analysis; conditions: at 10 µM
[15] = test system: Malme-3M; test: Growth inhibition of human MALME-3M cells after 48 hrs by cell counting analysis; conditions: at 10 µM
[16] = test system: BT-549; test: Growth inhibition of human BT549 cells after 48 hrs by cell counting analysis; conditions: at 10 µM
[17] = test system: ACHN; test: Growth inhibition of human ACHN cells after 48 hrs by cell counting analysis; conditions: at 10 µM
[18] = test system: A549; test: Growth inhibition of human A549 cells after 48 hrs by cell counting analysis; conditions: at 10 µM
[19] = Growth inhibition of human NCI-ADR-RES cells after 48 hrs by cell counting analysis; conditions: at 10 µM
[20] = test system: UACC-257; test: Growth inhibition of human UACC257 cells after 48 hrs by cell counting analysis; conditions: at 10 µM
[21] = test system: EKVX; test: Growth inhibition of human EKVX cells after 48 hrs by cell counting analysis; conditions: at 10 µM
[22] = test system: IGROV-1; test: Growth inhibition of human IGROV1 cells after 48 hrs by cell counting analysis; conditions: at 10 µM
[23] = test system: SF-268; test: Growth inhibition of human SF268 cells after 48 hrs by cell counting analysis; conditions: at 10 µM
[24] = test system: SK-OV-3; test: Growth inhibition of human SKOV3 cells after 48 hrs by cell counting analysis; conditions: at 10 µM
[25] = Growth inhibition of human NCI-322M cells after 48 hrs by cell counting analysis; conditions: at 10 µM
[26] = test system: SNB-19; test: Growth inhibition of human SNB19 cells after 48 hrs by cell counting analysis; conditions: at 10 µM
[27] = test system: TK-10; test: Growth inhibition of human TK10 cells after 48 hrs by cell counting analysis; conditions: at 10 µM
[28] = test system: NCI-H23; test: Growth inhibition of human NCI-H23 cells after 48 hrs by cell counting analysis; conditions: at 10 µM
[29] = test system: MDA-MB-435; test: Growth inhibition of human MDA-MB-435 cells after 48 hrs by cell counting analysis; conditions: at 10 µM
[30] = test system: KM12; test: Growth inhibition of human KM12 cells after 48 hrs by cell counting analysis; conditions: at 10 µM
[31] = test system: MCF7; test: Growth inhibition of human MCF7 cells after 48 hrs by cell counting analysis; conditions: at 10 µM
[32] = test system: NCI-H226; test: Growth inhibition of human NCI-H226 cells after 48 hrs by cell counting analysis; conditions: at 10 µM
[33] = test system: SW-620; test: Growth inhibition of human SW620 cells after 48 hrs by cell counting analysis; conditions: at 10 µM
[34] = test system: SNB-75; test: Growth inhibition of human SNB75 cells after 48 hrs by cell counting analysis; conditions: at 10 µM
[35] = test system: HCT-116; test: Growth inhibition of human HCT116 cells after 48 hrs by cell counting analysis; conditions: at 10 µM
[36] = test system: MDA-MB-231; test: Growth inhibition of human MDA-MB-231 cells after 48 hrs by cell counting analysis; conditions: at 10 µM
[37] = test system: MDA-MB-468; test: Growth inhibition of human MDA-MB-468 cells after 48 hrs by cell counting analysis; conditions: at 10 µM
[38] = test system: SK-MEL-5; test: Growth inhibition of human SK-MEL-5 cells after 48 hrs by cell counting analysis; conditions: at 10 µM
[39] = test system: HOP-92; test: Growth inhibition of human HOP92 cells after 48 hrs by cell counting analysis; conditions: at 10 µM
[40] = test system: SN12C; test: Growth inhibition of human SN12C cells after 48 hrs by cell counting analysis; conditions: at 10 µM
[41] = test system: SF-295; test: Growth inhibition of human SF295 cells after 48 hrs by cell counting analysis; conditions: at 10 µM
[42] = test system: SK-MEL-2; test: Growth inhibition of human SK-MEL-2 cells after 48 hrs by cell counting analysis; conditions: at 10 µM
[43] = test system: SF-539; test: Growth inhibition of human SF539 cells after 48 hrs by cell counting analysis; conditions: at 10 µM
[44] = test system: OVCAR-5; test: Growth inhibition of human OVCAR5 cells after 48 hrs by cell counting analysis; conditions: at 10 µM
[45] = test system: M14; test: Growth inhibition of human M14 cells after 48 hrs by cell counting analysis; conditions: at 10 µM
[46] = test system: T47D; test: Growth inhibition of human T47D cells after 48 hrs by cell counting analysis; conditions: at 10 µM
[47] = test system: NCI-H522; test: Growth inhibition of human NCI-H522 cells after 48 hrs by cell counting analysis; conditions: at 10 µM
[48] = test system: OVCAR-8; test: Growth inhibition of human OVCAR8 cells after 48 hrs by cell counting analysis; conditions: at 10 µM
[49] = test system: RPMI-8226; test: Growth inhibition of human RPMI8226 cells after 48 hrs by cell counting analysis; conditions: at 10 µM
[50] = test system: SR; test: Growth inhibition of human SR cells after 48 hrs by cell counting analysis; conditions: at 10 µM
[51] = test system: HCC 2998; test: Growth inhibition of human HCC2998 cells after 48 hrs by cell counting analysis; conditions: at 10 µM
[52] = test system: U-251; test: Growth inhibition of human U251 cells after 48 hrs by cell counting analysis; conditions: at 10 µM
[53] = test system: MOLT-4; test: Growth inhibition of human MOLT4 cells after 48 hrs by cell counting analysis; conditions: at 10 µM
[54] = test system: LOX IMVI; test: Growth inhibition of human LOXIMVI cells after 48 hrs by cell counting analysis; conditions: at 10 µM
[55] = test system: CAKI-1; test: Growth inhibition of human Caki1 cells after 48 hrs by cell counting analysis; conditions: at 10 µM
[56] = test system: CCRF-CEM; test: Growth inhibition of human CCRF-CEM cells after 48 hrs by cell counting analysis; conditions: at 10 µM
[57] = test system: HCT-15; test: Growth inhibition of human HCT15 cells after 48 hrs by cell counting analysis; conditions: at 10 µM
[58] = test system: OVCAR-4; test: Growth inhibition of human OVCAR4 cells after 48 hrs by cell counting analysis; conditions: at 10 µM
[59] = test system: SK-MEL-28; test: Growth inhibition of human SK-MEL-28 cells after 48 hrs by cell counting analysis; conditions: at 10 µM
[60] = test system: RXF 393; test: Growth inhibition of human RXF393 cells after 48 hrs by cell counting analysis; conditions: at 10 µM
[61] = test system: HOP-62; test: Growth inhibition of human HOP62 cells after 48 hrs by cell counting analysis; conditions: at 10 µM
[62] = test system: OVCAR-3; test: Growth inhibition of human OVCAR3 cells after 48 hrs by cell counting analysis; conditions: at 10 µM
[63] = test system: UACC-62; test: Growth inhibition of human UACC62 cells after 48 hrs by cell counting analysis; conditions: at 10 µM
[64] = read-out: LC50 (the source's name)

O=c1[nH]cc(F)c(=O)[nH]1 [FLUOROURACIL]
GI50 [1]: 45.6 µM
TGI [1]: > 100 µM
CC50 [1, 64]: > 100 µM
GI50 [2]: > 100 µM
TGI [2]: > 100 µM
CC50 [2, 64]: > 100 µM
GI50 [3]: 70.6 µM
TGI [3]: > 100 µM
CC50 [3, 64]: > 100 µM
GI50 [4]: 61.4 µM
TGI [4]: > 100 µM
CC50 [4, 64]: > 100 µM
GI50 [5]: 22.7 µM
TGI [5]: > 100 µM
CC50 [5, 64]: > 100 µM
GI50 [6]: 76.4 µM
TGI [6]: > 100 µM
CC50 [6, 64]: > 100 µM
TGI [7]: > 100 µM
CC50 [7, 64]: > 100 µM
GI50 [8]: 8.4 µM
TGI [8]: > 100 µM
CC50 [8, 64]: > 100 µM
TGI [9]: > 100 µM
CC50 [9, 64]: > 100 µM

O=C(CN1CCN(c2ccccc2)CC1)Nc1nc(-c2ccc(Br)cc2)cs1
growth inhibition (GI) [10]: 54.6%
growth inhibition (GI) [11]: 28.5%
growth inhibition (GI) [12]: 27.1%
growth inhibition (GI) [13]: 70.7%
growth inhibition (GI) [14]: 37.7%
growth inhibition (GI) [15]: 13.8%
growth inhibition (GI) [16]: 13.6%
growth inhibition (GI) [17]: 15.7%
growth inhibition (GI) [18]: 30.8%
growth inhibition (GI) [19]: 30.9%
growth inhibition (GI) [20]: 13.7%
growth inhibition (GI) [21]: 26.7%
growth inhibition (GI) [22]: 34.3%
growth inhibition (GI) [23]: 17%
growth inhibition (GI) [24]: <10%
growth inhibition (GI) [25]: 20.5%
growth inhibition (GI) [26]: 23.9%
growth inhibition (GI) [27]: 28.3%
growth inhibition (GI) [28]: 22.5%
growth inhibition (GI) [29]: 23.9%
growth inhibition (GI) [30]: <10%
growth inhibition (GI) [31]: 41.2%
growth inhibition (GI) [32]: 20.2%
growth inhibition (GI) [33]: <10%
growth inhibition (GI) [34]: 17.9%
growth inhibition (GI) [35]: 33.1%
growth inhibition (GI) [36]: 22.2%
growth inhibition (GI) [37]: 55.6%
growth inhibition (GI) [38]: 39.4%
growth inhibition (GI) [39]: <10%
growth inhibition (GI) [40]: 23.7%
growth inhibition (GI) [41]: 20.9%
growth inhibition (GI) [42]: 14.5%
growth inhibition (GI) [43]: <10%
growth inhibition (GI) [44]: <10%
growth inhibition (GI) [45]: 15.7%
growth inhibition (GI) [46]: 41.8%
growth inhibition (GI) [47]: 34.5%
growth inhibition (GI) [48]: 11.9%
growth inhibition (GI) [49]: 33.6%
growth inhibition (GI) [50]: <10%
growth inhibition (GI) [51]: 21%
growth inhibition (GI) [52]: <10%
growth inhibition (GI) [53]: 47.6%
growth inhibition (GI) [54]: 11.6%
growth inhibition (GI) [55]: 33.5%
growth inhibition (GI) [56]: 22.2%
growth inhibition (GI) [57]: 26.1%
growth inhibition (GI) [58]: <10%
growth inhibition (GI) [59]: <10%
growth inhibition (GI) [60]: 13.6%
growth inhibition (GI) [61]: <10%
growth inhibition (GI) [62]: <10%
growth inhibition (GI) [63]: 40.1%

Cc1ccc(-c2csc(NC(=O)CCN3CCN(c4ccccc4)CC3)n2)cc1
growth inhibition (GI) [10]: 41.2%
growth inhibition (GI) [11]: 16.1%
growth inhibition (GI) [12]: <10%
growth inhibition (GI) [13]: <10%
growth inhibition (GI) [14]: <10%
growth inhibition (GI) [15]: 12.1%
growth inhibition (GI) [16]: <10%
growth inhibition (GI) [17]: <10%
growth inhibition (GI) [18]: 23.8%
growth inhibition (GI) [19]: <10%
growth inhibition (GI) [20]: <10%
growth inhibition (GI) [21]: 16.6%
growth inhibition (GI) [22]: 14.9%
growth inhibition (GI) [23]: <10%
growth inhibition (GI) [24]: <10%
growth inhibition (GI) [25]: 15.6%
growth inhibition (GI) [26]: <10%
growth inhibition (GI) [27]: <10%
growth inhibition (GI) [28]: 14.5%
growth inhibition (GI) [29]: <10%
growth inhibition (GI) [30]: <10%
growth inhibition (GI) [31]: <10%
growth inhibition (GI) [32]: <10%
growth inhibition (GI) [33]: <10%
growth inhibition (GI) [34]: <10%
growth inhibition (GI) [35]: <10%
growth inhibition (GI) [36]: <10%
growth inhibition (GI) [37]: <10%
growth inhibition (GI) [38]: <10%
growth inhibition (GI) [39]: 10.2%
growth inhibition (GI) [40]: <10%
growth inhibition (GI) [41]: <10%
growth inhibition (GI) [42]: <10%
growth inhibition (GI) [43]: <10%
growth inhibition (GI) [44]: <10%
growth inhibition (GI) [45]: <10%
growth inhibition (GI) [46]: <10%
growth inhibition (GI) [47]: <10%
growth inhibition (GI) [48]: <10%
growth inhibition (GI) [49]: <10%
growth inhibition (GI) [50]: <10%
growth inhibition (GI) [51]: <10%
growth inhibition (GI) [52]: <10%
growth inhibition (GI) [53]: 14.9%
growth inhibition (GI) [54]: <10%
growth inhibition (GI) [55]: 14.1%
growth inhibition (GI) [56]: <10%
growth inhibition (GI) [57]: <10%
growth inhibition (GI) [58]: 11.1%
growth inhibition (GI) [59]: <10%
growth inhibition (GI) [60]: <10%
growth inhibition (GI) [61]: <10%
growth inhibition (GI) [62]: <10%
growth inhibition (GI) [63]: 16.3%
